These compounds were tested against T1, CDK2 (Homo sapiens, UniProt P24941) (assay: Phospho-RB measurement in OVCAR3 cells (HTRF phospho-RB cellular kit)). Conditions: inhibition of RB phosphorylation at S807/811 (HTRF, TR-FRET ratio 665/620), 24 h compound treatment, 0.3 to 10,000 nM.
T1 construct: endogenous in cells; host or cells: OVCAR3 cells
Format: cell-based
Summary of the method: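 IC50 came from a four-parameter logistic fit of the DMSO-normalized TR-FRET ratio (665/620 nm). That ratio reflects RB phosphorylation at S807/811, read with an HTRF antibody pair 4 h after adding lysate at room temperature.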

Compound	IC50
CC(C)(C)c1nc(-c2cccc(NS(=O)(=O)N3Cc4cccc(Oc5ccccc5)c4C3)c2F)c(-c2ccnc(NC3CC4(C3)CS(=O)(=O)C4)n2)s1 [Example 210, N-(3-(2-(tert-butyl)-5-(2-((2,2-dioxido-2-thiaspiro[3.3]heptan-6-yl)amino)-pyrimidin-4-yl)thiazol-4-yl)-2-fluoro-phenyl)-4-phenoxy-isoindoline-2-sulfonamide]	505 nM
CC(C)(C)c1nc(-c2cccc(NS(=O)(=O)N3Cc4cccc(Oc5ccccc5)c4C3)c2F)c(-c2ccnc(NC3CCN(S(C)(=O)=O)CC3)n2)s1 [Example 211, N-(3-(2-(tert-butyl)-5-(2-((1-(methylsulfonyl)-piperidin-4-yl)amino)-pyrimidin-4-yl)thiazol-4-yl)-2-fluoro-phenyl)-4-phenoxyisoindoline-2-sulfonamide]	613 nM
O=S1(=O)CC2(CC(Nc3nccc(-c4sc(N5C6CCC5COC6)nc4-c4cccc(NS(=O)(=O)N5Cc6ccncc6C5)c4F)n3)C2)C1 [Example 212, N-(3-(2-(3-oxa-8-azabicyclo [3.2.1]octan-8-yl)-5-(2-((2,2-dioxido-2-thiaspiro-[3.3]heptan-6-yl)amino)pyrimidin-4-yl)thiazol-4-yl)-2-fluorophenyl)-1,3-dihydro-2H-pyrrolo [3,4-c]-pyridine-2-sulfonamide]	662 nM
CC(C)(C)c1nc(-c2cccc(NS(=O)(=O)N3Cc4ccccc4C3Cc3ccccc3)c2F)c(-c2ccnc(NC3CCN(S(C)(=O)=O)CC3)n2)s1 (stereo not shown) [Example 213, 1-benzyl-N-(3-(2-(tert-butyl)-5-(2-((1-(methylsulfonyl)piperidin-4-yl)amino)-pyrimidin-4-yl)thiazol-4-yl)-2-fluoro-phenyl)-isoindoline-2-sulfonamide]	3300 nM
CC(C)(C)c1nc(-c2cccc(NS(=O)(=O)N3Cc4cccc(Oc5cccc(F)c5)c4C3)c2F)c(-c2ccnc(NC3CC4(C3)CS(=O)(=O)C4)n2)s1 [Example 214, N-(3-(2-(tert-butyl)-5-(2-((2,2-dioxido-2-thiaspiro[3.3]heptan-6-yl)amino)-pyrimidin-4-yl)thiazol-4-yl)-2-fluorophenyl)-4-(3-fluorophenoxy)-isoindoline-2-sulfonamide]	535 nM
CC(C)(C)c1nc(-c2cccc(NS(=O)(=O)N3Cc4cccc(Oc5ccc(F)cc5)c4C3)c2F)c(-c2ccnc(NC3CC4(C3)CS(=O)(=O)C4)n2)s1 [Example 215, N-(3-(2-(tert-butyl)-5-(2-((2,2-dioxido-2-thiaspiro[3.3]heptan-6-yl)amino)-pyrimidin-4-yl)thiazol-4-yl)-2-fluoro-phenyl)-4-(4-fluoro-phenoxy)-isoindoline-2-sulfonamide]	601 nM
CC(C)(C)c1nc(-c2cccc(NS(=O)(=O)N3CCc4c(CO)cccc43)c2F)c(-c2ccnc(NC3CC4(C3)CS(=O)(=O)C4)n2)s1 [Example 216, N-(3-(2-(tert-butyl)-5-(2-((2,2-dioxido-2-thiaspiro[3.3]heptan-6-yl)amino)-pyrimidin-4-yl)thiazol-4-yl)-2-fluoro-phenyl)-4-(hydroxymethyl) indoline-1-sulfonamide]	65.4 nM
CC(C)(C)c1nc(-c2cccc(NS(=O)(=O)N3CCc4ccc(-c5ccccc5)cc43)c2F)c(-c2ccnc(NC3CC4(C3)CS(=O)(=O)C4)n2)s1 [Example 217, N-(3-(2-(tert-butyl)-5-(2-((2,2-dioxido-2-thiaspiro[3.3]heptan-6-yl)amino)-pyrimidin-4-yl)thiazol-4-yl)-2-fluoro-phenyl)-6-phenyl-indoline-1-sulfonamide]	934 nM
CC(C)(C)c1nc(-c2cccc(NS(=O)(=O)N3CCc4ccc(-c5ccccc5)cc43)c2F)c(-c2ccnc(NC3CCN(S(C)(=O)=O)CC3)n2)s1 [Example 218, N-(3-(2-(tert-butyl)-5-(2-((1-(methylsulfonyl)-piperidin-4-yl)amino)-pyrimidin-4-yl)thiazol-4-yl)-2-fluoro-phenyl)-6-phenylindoline-1-sulfonamide]	1300 nM
CC(C)(C)c1nc(-c2cccc(NS(=O)(=O)N3Cc4cccc(C5CCCCC5)c4C3)c2F)c(-c2ccnc(NC3CCN(S(C)(=O)=O)CC3)n2)s1 [Example 228, N-(3-(2-(tert-butyl)-5-(2-((1-(methylsulfonyl)-piperidin-4-yl)amino)-pyrimidin-4-yl)thiazol-4-yl)-2-fluoro-phenyl)-4-cyclohexyliso-indoline-2-sulfonamide]	1510 nM

More lines, now with the values ahead:

IC50	Compound
583 nM	CC(C)(C)c1nc(-c2cccc(NS(=O)(=O)N3Cc4cccc(Oc5ccccc5C#N)c4C3)c2F)c(-c2ccnc(NC3CC4(C3)CS(=O)(=O)C4)n2)s1 [Example 219, N-(3-(2-(tert-butyl)-5-(2-((2,2-dioxido-2-thiaspiro[3.3]heptan-6-yl)amino)-pyrimidin-4-yl)thiazol-4-yl)-2-fluorophenyl)-4-(2-cyanophenoxy)-isoindoline-2-sulfonamide]
802 nM	Cn1c(-c2ccc3c(c2)N(S(=O)(=O)Nc2cccc(-c4nc(C(C)(C)C)sc4-c4ccnc(NC5CC6(C5)CS(=O)(=O)C6)n4)c2F)CC3)cccc1=O [Example 220, N-(3-(2-(tert-butyl)-5-(2-((2,2-dioxido-2-thiaspiro[3.3]heptan-6-yl)amino)-pyrimidin-4-yl)thiazol-4-yl)-2-fluoro-phenyl)-6-(1-methyl-6-oxo-1,6-dihydropyridin-2-yl)indoline-1-sulfonamide]
35.5 nM	COc1cccc2c1CN(S(=O)(=O)Nc1cccc(-c3nc(C(C)(C)C)sc3-c3ccnc(N[C@H]4[C@@H]5CS(=O)(=O)C[C@@H]54)n3)c1F)C2 [Example 221, N-(3-(2-(tert-butyl)-5-(2-(((1R,5S,6r)-3,3-dioxido-3-thiabicyclo [3.1.0]hexan-6-yl)amino)pyrimidin-4-yl)thiazol-4-yl)-2-fluorophenyl)-4-methoxyisoindoline-2-sulfonamide]
152 nM	CC(C)(C)c1nc(-c2cccc(NS(=O)(=O)N3Cc4ccncc4C3)c2F)c(-c2ccnc(N[C@H]3[C@@H]4CS(=O)(=O)C[C@@H]43)n2)s1 [Example 222, N-(3-(2-(tert-butyl)-5-(2-(((1R,5S,6r)-3,3-dioxido-3-thiabicyclo[3.1.0]hexan-6-yl)amino)pyrimidin-4-yl)thiazol-4-yl)-2-fluorophenyl)-1,3-dihydro-2H-pyrrolo[3,4-c]-pyridine-2-sulfonamide]
89 nM	CC(C)(C)c1nc(-c2cccc(NS(=O)(=O)N3CCc4ccc(C#N)cc43)c2F)c(-c2ccnc(N[C@H]3[C@@H]4CS(=O)(=O)C[C@@H]43)n2)s1 [Example 223, N-(3-(2-(tert-butyl)-5-(2-(((1R,5S,6r)-3,3-dioxido-3-thiabicyclo [3.1.0]hexan-6-yl)amino)pyrimidin-4-yl)thiazol-4-yl)-2-fluorophenyl)-6-cyanoindoline-1-sulfonamide]
300 nM	CC(C)(C)c1nc(-c2cccc(NS(=O)(=O)N3Cc4cccc(-c5ccccc5)c4C3)c2F)c(-c2ccnc(NC3CCN(S(C)(=O)=O)CC3)n2)s1 [Example 224, N-(3-(2-(tert-butyl)-5-(2-((1-(methylsulfonyl)-piperidin-4-yl)amino)-pyrimidin-4-yl)thiazol-4-yl)-2-fluoro-phenyl)-4-phenylisoindoline-2-sulfonamide]
456 nM	CC(C)(C)c1nc(-c2cccc(NS(=O)(=O)N3CCc4ccc(C#N)cc43)c2F)c(-c2ccnc(Nc3ccc(N4CCNCC4)cc3)n2)s1 [Example 225, N-(3-(2-(tert-butyl)-5-(2-((4-(piperazin-1-yl)phenyl)amino)pyrimidin-4-yl)-thiazol-4-yl)-2-fluorophenyl)-6-cyano-indoline-1-sulfonamide]
527 nM	CC(C)Oc1cccc2c1CN(S(=O)(=O)Nc1cccc(-c3nc(C(C)(C)C)sc3-c3ccnc(NC4CC5(C4)CS(=O)(=O)C5)n3)c1F)C2 [Example 226, N-(3-(2-(tert-butyl)-5-(2-((2,2-dioxido-2-thiaspiro[3.3]heptan-6-yl)amino)-pyrimidin-4-yl)thiazol-4-yl)~2~fluoro-phenyl)-4-isopropoxyiso-indoline-2-sulfonamide]
517 nM	CC(C)(C)c1nc(-c2cccc(NS(=O)(=O)N3Cc4cccc(-c5cccc(C#N)c5)c4C3)c2F)c(-c2ccnc(NC3CCN(S(C)(=O)=O)CC3)n2)s1 [Example 227, N-(3-(2-(tert-butyl)-5-(2-((1-(methylsulfonyl)-piperidin-4-yl)amino)-pyrimidin-4-yl)thiazol-4-yl)-2-fluoro-phenyl)-4-(3-cyanophenyl)-isoindoline-2-sulfonamide]
145 nM	CC(O)c1cccc2c1CCN2S(=O)(=O)Nc1cccc(-c2nc(C(C)(C)C)sc2-c2ccnc(NC3CC4(C3)CS(=O)(=O)C4)n2)c1F (stereo not shown) [Example 229, N-(3-(2-(tert-butyl)-5-(2-((2,2-dioxido-2-thiaspiro[3.3]heptan-6-yl)amino)-pyrimidin-4-yl)thiazol-4-yl)-2-fluoro-phenyl)-4-(1-hydroxyethyl)-indoline-1-sulfonamide]
354 nM	CC(C)(C)c1nc(-c2cccc(NS(=O)(=O)N3CCc4c3cccc4C(C)(C)O)c2F)c(-c2ccnc(NC3CC4(C3)CS(=O)(=O)C4)n2)s1 [Example 230, N-(3-(2-(tert-butyl)-5-(2-((2,2-dioxido-2-thiaspiro[3.3]heptan-6-yl)amino)-pyrimidin-4-yl)thiazol-4-yl)~2-fluoro-phenyl)-4-(2-hydroxypropan-2-yl)-indoline-1-sulfonamide]
77.4 nM	CC(C)(C)c1nc(-c2cccc(NS(=O)(=O)N3Cc4ccc(CO)cc4C3)c2F)c(-c2ccnc(NC3CC4(C3)CS(=O)(=O)C4)n2)s1 [Example 231, N-(3-(2-(tert-butyl)-5-(2-((2,2-dioxido-2-thiaspiro[3.3]heptan-6-yl)amino)-pyrimidin-4-yl)thiazol-4-yl)-2-fluorophenyl)-5-(hydroxymethyl)-isoindoline-2-sulfonamide]
